Results: the NIST ThermoML archive (doi:10.1021/je060179e)
Numbers after ± are expanded uncertainties.

Conditions: for mass density: 101.33 kPa, Liquid

Compound | surface tension liquid-gas (288.15 K) [mN/m] | mass density (288.15 K) [kg/m3] | surface tension liquid-gas (293.15 K) [mN/m] | mass density (293.15 K) [kg/m3] | surface tension liquid-gas (298.15 K) [mN/m] | mass density (298.15 K) [kg/m3] | surface tension liquid-gas (303.15 K) [mN/m] | mass density (303.15 K) [kg/m3] | surface tension liquid-gas (308.15 K) [mN/m] | mass density (308.15 K) [kg/m3]
CCCCCCC [heptane] | 20.81 ± 0.27 | 687.98 ± 0.65 | 20.27 ± 0.27 | 683.78 ± 0.65 | 19.68 ± 0.27 | 679.55 ± 0.66 | 19.19 ± 0.26 | 675.3 ± 0.66 | 18.93 ± 0.26 | 671 ± 0.67
CCCCO [butan-1-ol] | 24.68 ± 0.29 | 813.32 ± 0.23 | 24.21 ± 0.29 | 809.56 ± 0.23 | 23.79 ± 0.29 | 805.72 ± 0.24 | 23.34 ± 0.28 | 801.91 ± 0.24 | 22.79 ± 0.28 | 798.07 ± 0.24
CCCCCCO [hexan-1-ol] | 26.08 ± 0.32 | 822.28 ± 0.91 | 25.61 ± 0.32 | 818.75 ± 0.92 | 25.19 ± 0.32 | 815.23 ± 0.93 | 24.74 ± 0.32 | 811.6 ± 0.94 | 24.19 ± 0.31 | 808 ± 0.95
CCCCCCCCO [octan-1-ol] | 27.41 ± 0.31 | 828.55 ± 0.45 | 26.94 ± 0.31 | 825.11 ± 0.45 | 26.52 ± 0.31 | 821.64 ± 0.46 | 26.07 ± 0.3 | 818.19 ± 0.46 | 25.52 ± 0.3 | 814.69 ± 0.47
